The data set can be described thus: skin irritability (stated in words, no method described). The conditions noted are these: the vinyl ether itself.

Turning to `C=COCC1(COC=C)CC=CCC1` [4,4-bis[(ethenyloxy)methyl]cyclohexene], the skin irritability entry was “low”.

Values taken from patent US9156762B2, “4,4-bis[(ethenyloxy)methyl]cyclohexene and method for producing same” (Nippon Carbide Industries Co., Inc., priority 2011, dated 2015).
